Patent US20230398087A1, “APPLICATION OF BZP IN TREATMENT OF ISCHEMIC CARDIOVASCULAR AND CEREBRAL VASCULAR DISEASES” (priority 2020, published 2023)

System: acute global cerebral ischemia in rats
Experiment: Acute global cerebral ischemia in rats, volume of cerebral infarction (nuclear magnetic resonance)
Format: in vivo
Conditions: BZP 0.75, 3, 12 and 24 mg/kg; Br-NBP 10.5 mg/kg; NBP-K 9.6 mg/kg; vs model group
From the text: 2.7 The Protective Effect of BZP on Acute Global Cerebral Ischemia in Rats: […]

Row | Structure (SMILES) | volume of cerebral infarction
1 | CCCCC(O)c1ccccc1C(=O)[O-].[K+] (centres unmarked) [NBP-K, reference compound] | significantly reduce
2 | CCCCC1OC(=O)c2cc(Br)ccc21 (centres unmarked) [Br-NBP, reference compound] | significantly reduce
